Reference: patent publication US11116740B2, “Methods for use in support of planned supplement and food ingredient products for diagnosis and treatment of metabolic syndrome” (priority 2015, dated 2021)

What was measured:
[1] = Serum fatty acid metabolomics (UPLC-MS/MS), feeding study
Method: This study examined global metabolic profiles in six dolphins (“Group A dolphins”). The dolphins lived in netted enclosures within San Diego Bay. The dolphins started on a 100% capelin diet. Group A dolphins were fed one-third of their daily diet in the morning after their routine overnight fast and 2h postprandial, in-water, and trained blood samples were drawn (typically near 10:00 a.m.). An additional four dolphins (“Group C dolphins”) were fed the capelin diet.
Two hour post-prandial samples were collected from the dolphins at baseline (week 0) and at four time points following the switch to the modified diet: 6, 12, 18, and 24 weeks. Routine monthly samples collected from four reference dolphins that were housed in the same environment as the Group A dolphins were assessed for glucose, triglycerides, ferritin, and percent serum fatty acids.
Sample Preparation: Samples were prepared using the automated MicroLab STAR® system from Hamilton Company. Several recovery standards were added prior to the first step in the extraction process for QC purposes. Proteins were precipitated with methanol under vigorous shaking for 2 min (Glen Mills GenoGrinder 2000) followed by centrifugation. The resulting extract was divided into five fractions: two for analysis by two separate reverse phase (RP)/UPLC-MS/MS methods with positive ion mode electrospray ionization (ESI), one for analysis by RP/UPLC-MS/MS with negative ion mode ESI, one for analysis by HILIC/UPLC-MS/MS with negative ion mode ESI, and one sample was reserved. Samples were placed briefly on a TurboVap® (Zymark) to remove the organic solvent. The sample extracts were stored overnight under nitrogen before preparation for analysis.
Ultrahigh Performance Liquid Chromatography-Tandem Mass Spectroscopy (UPLC-MS/[…]): Each of four methods utilized a Waters ACQUITY ultra-performance liquid chromatography (UPLC) and a Thermo Scientific Q-Exactive high resolution/accurate mass spectrometer interfaced with a heated electrospray ionization (HESI-II) source and Orbitrap mass analyzer operated at 35,000 mass resolution. A sample extract was dried, then reconstituted in solvents compatible to each of the four methods. Each reconstitution solvent contained a series of standards at fixed concentrations to ensure injection and chromatographic consistency. A first aliquot was analyzed using acidic positive ion conditions, chromatographically optimized for more hydrophilic compounds. In this method, the extract was gradient eluted from a C18 column (Waters UPLC BEH C18-2. 1×100 mm, 1.7 μm) using water and methanol, containing 0.05% perfluoropentanoic acid (PFPA) and 0.1% formic acid (FA). A second aliquot was also analyzed using acidic positive ion conditions, however it was chromatographically optimized for more hydrophobic compounds. In this method, the extract was gradient eluted from the same afore mentioned C18 column using methanol, acetonitrile, water, 0.05% PFPA and 0.01% FA and was operated at an overall higher organic content. A third aliquot was analyzed using basic negative ion optimized conditions using a separate dedicated C 18 column. The basic extracts were gradient eluted from the column using methanol and water, however with 6.5 mM Ammonium Bicarbonate at pH 8. […] The MS analysis alternated between MS and data-dependent MSn scans using dynamic exclusion. The scan range varied slighted between methods but covered 70-1000 m/z.
Data Extraction and Compound Identification: Raw data was extracted, peak-identified and QC processed using Metabolon's hardware and software. The systems were based on a web-service platform utilizing Microsoft's .NET technologies, which ran on high-performance application servers and fiber-channel storage arrays in clusters to provide active failover and load-balancing. Compounds were identified by comparison to library entries of purified standards or recurrent unknown entities.

[2] = Serum fatty acid profile (% serum fatty acids, GC/MS), feeding study; format: in vivo, bottlenose dolphin (Tursiops truncatus)
Method: The dolphins started on a 100% capelin diet.
Changes in percent serum for the targeted fatty acids (C17:0, C20:4n6, and C22:0), as well as insulin, glucose, triglycerides, iron, transferrin saturation, and ferritin, were assessed among feeding study dolphins during weeks 3, 6, 12, 18 and 24 and compared to week 0 using pairwise comparison t-tests. Erythrocyte membrane fatty acids were measured during weeks 3, 6, 12, 18, and 24. Serum ferritin in Group A dolphins increased.
Blood was collected into BD Vacutainer serum separator tubes (for insulin, iron, ferritin, serum fatty acids profile, and serum chemistry), EDTA BD Vacutainer blood collection tubes (for erythrocyte fatty acid profile), and Lithium Heparin BD Vacutainer blood collection tubes (for plasma chemistry, including triglycerides). Blood tubes were centrifuged at 3000 rpm for 10 minutes within 30-60 minutes of collection and chilled during processing until shipment. Remaining serum/plasma was transferred to cryovials and stored at −80° C. until shipment on dry ice via overnight courier to the reference laboratories.
Serum and red blood cell membrane fatty acid profiles were performed by the Genetics Laboratories at the Kennedy Krieger Institute. Fatty acids were analyzed by capillary gas chromatography/mass spectrometry of pentaflourobenzyl bromide fatty acid derivatives using an AT-Silar-100 column (Grace, Columbia, Md. 21044) as previously described. For red blood cells only, the lipids were extracted with hexane:isopropanol before analysis. Each run was required to pass clinical laboratory quality control before the data were released. CV % were typically under 10%. Percent fatty acids in serum was used as a sturdier index to help reduce potential variability in serum among study dolphins. Iron, TIBC, and ferritin were analyzed at the Kansas State Veterinary Diagnostic Laboratory by colorimetric analysis on the Roche Cobas Mira (Roche Diagnostics, Indianapolis, Ind. 46250) per the manufacturer's protocol. Plasma triglycerides and glucose were directly measured using the Roche Cobas 8000 system (Roche Diagnostics, Indianapolis, Ind. 46250) per the manufacturers' protocol. Glucose was measured photometrically at the Animal Health Diagnostic Center at Cornell University on the Roche Diagnostics Modular Analytics P Module clinical chemistry analyzer (Roche Diagnostics, Indianapolis, Ind. 46250). Total insulin was analyzed at ARUP Laboratories by ultrafiltration/quantitative chemiluminescent immunoassay on the Siemens ADVIA Centaur Immunoassay system (Siemens Medical Solutions USA, Inc., Malvern, Pa. 19355).

[3] = bottlenose dolphin (Tursiops truncatus), in vivo, 6 weeks
[4] = bottlenose dolphin (Tursiops truncatus), in vivo, 12 weeks
[5] = bottlenose dolphin (Tursiops truncatus), in vivo, 18 weeks
[6] = bottlenose dolphin (Tursiops truncatus), in vivo, 24 weeks
[7] = bottlenose dolphin (Tursiops truncatus), in vivo, 3 weeks
[8] = Group A dolphins, modified diet, proportional to value at outset of study

SMILES	serum concentration 6 wk / 0 wk [1, 3]	serum concentration 12 wk / 0 wk [1, 4]	serum concentration 18 wk / 0 wk [1, 5]	serum concentration 24 wk / 0 wk [1, 6]	Serum fatty acids (%) [2, 7] [%]	Serum fatty acids (%) [2, 3] [%]	Serum fatty acids (%) [2, 4] [%]	Serum fatty acids (%) [2, 5] [%]	Serum fatty acids (%) [2, 6] [%]	Serum fatty acids (%) ([2]; Group A dolphins, modified diet, week 3)	Serum fatty acids (%) ([2]; Group A dolphins, modified diet, week 6)	Serum fatty acids (%) ([2]; Group A dolphins, modified diet, week 12)	Serum fatty acids (%) ([2]; Group A dolphins, modified diet, week 18)	Serum fatty acids (%) ([2]; Group A dolphins, modified diet, week 24)	serum concentration 6 wk / 0 wk [1, 8]	serum concentration 12 wk / 0 wk [1, 8]	serum concentration 18 wk / 0 wk [1, 8]	serum concentration 24 wk / 0 wk [1, 8]	serum levels compared to week 0 ([2]; in vivo)
CCCCC/C=C\C/C=C\C/C=C\C/C=C\CCCC(=O)O [Arachidonic acid, (5Z,8Z,11Z,14Z)-icosa-5,8,11,14-tetraenoic acid]	1.19	1.62	1.5	1.19	6 ± 2	7 ± 2	10 ± 4	10 ± 3	10 ± 3										
CCCCCCCCCCCCCCCCCCCCCC(=O)O [Behenic acid]										0.21 ± 0.06	0.25 ± 0.07	0.28 ± 0.06	0.26 ± 0.04	0.29 ± 0.04					
CCCCCCCCCCCCCCCCC(=O)O [Heptadecanoic acid, heptadecanoic acid]					0.5 ± 0.2	0.5 ± 0.1	0.7 ± 0.3	0.8 ± 0.4	0.7 ± 0.2						1.25	1.65	1.72	1.21	higher
